Reference: patent publication US6737383B1, “Herbicidal oxadiazolidines” (priority 1999, dated 2004)

Assays:
giant foxtail = assay: Test B pre/postemergence giant foxtail; format: in vivo, Setaria faberii
Summary of the method: (§1)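 Response is a visual 0-to-10 score relative to untreated plants, where 0 means no effect and 10 means complete control, taken twelve to sixteen days after application. Treatments went onto soil at planting and onto foliage of 1- to 4-leaf plants, using a surfactant-containing non-phytotoxic solvent.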

purple nutsedge = assay: Test B pre/postemergence purple nutsedge; format: in vivo, Cyperus rotundus
Summary of the method: as §1

sugar beet = assay: Test B pre/postemergence sugar beet; format: in vivo, Beta vulgaris
Summary of the method: as §1

soybean = assay: Test B pre/postemergence soybean; format: in vivo, Glycine max
Summary of the method: as §1

rape = assay: Test B pre/postemergence rape; format: in vivo, Brassica napus
Summary of the method: as §1

crabgrass = assay: Test B pre/postemergence crabgrass; format: in vivo, Digitaria sanguinalis
Summary of the method: as §1

bedstraw = assay: Test B pre/postemergence bedstraw; format: in vivo, Galium aparine
Summary of the method: as §1

surinam grass = assay: Test B pre/postemergence surinam grass; format: in vivo, Brachiaria decumbens
Summary of the method: as §1

pigweed = assay: Test B pre/postemergence pigweed; format: in vivo, Amaranthus retroflexus
Summary of the method: as §1

wheat = assay: Test B pre/postemergence wheat; format: in vivo, Triticum aestivum
Summary of the method: as §1

wild oat = assay: Test B pre/postemergence wild oat; format: in vivo, Avena fatua
Summary of the method: as §1

morningglory = assay: Test B pre/postemergence morningglory; format: in vivo, Ipomoea hederacea
Summary of the method: as §1

cocklebur = assay: Test B pre/postemergence cocklebur; format: in vivo, Xanthium strumarium
Summary of the method: as §1

blackgrass = assay: Test B pre/postemergence blackgrass; format: in vivo, Alopecurus myosuroides; conditions: for Plant response rating, Blackgrass: scale of 0 to 10 where 0 is no effect and 10 is complete control
Summary of the method: as §1

velvetleaf = assay: Test B pre/postemergence velvetleaf; format: in vivo, Abutilon theophrasti
Summary of the method: as §1

corn = assay: Test B pre/postemergence corn; format: in vivo, Zea mays
Summary of the method: as §1

[1] = Postemergence, Rate 62 g/ha, scale of 0 to 10, 0 is no effect, 10 is complete control
[2] = Postemergence, Rate 125 g/ha, scale of 0 to 10 where 0 is no effect and 10 is complete control
[3] = Postemergence, Rate 250 g/ha, scale of 0 to 10, 0 is no effect, 10 is complete control
[4] = Postemergence, Rate 500 g/ha, scale of 0 to 10 where 0 is no effect and 10 is complete control
[5] = Preemergence, Rate 62 g/ha, scale 0 to 10 (0 no effect, 10 complete control)
[6] = Preemergence, Rate 125 g/ha, scale of 0 to 10 where 0 is no effect and 10 is complete control
[7] = Preemergence, Rate 500 g/ha, scale of 0 to 10 where 0 is no effect and 10 is complete control

## CC(C)N(C(=O)n1oc(=O)n(CCC(F)(F)F)c1=O)c1ccccc1 [Compound 584]
Giant foxtail; [1]
  Giant foxtail plant response rating: 7
Giant foxtail; [2]
  Plant response rating, Giant foxtail: 8
Giant foxtail; [3]
  Giant foxtail plant response rating: 9
Giant foxtail; [4]
  Plant response rating, Giant foxtail: 9
Giant foxtail; [5]
  Giant foxtail plant response rating: 9
Giant foxtail; [6]
  Giant foxtail plant response rating: 8
Giant foxtail; [7]
  Giant foxtail plant response rating: 10
Purple nutsedge; [1]
  Nutsedge plant response rating: 0
Purple nutsedge; [2]
  Plant response rating, Nutsedge: 0
Purple nutsedge; [3]
  Nutsedge plant response rating: 0
Purple nutsedge; [4]
  Plant response rating, Nutsedge: 3
Purple nutsedge; [5]
  Nutsedge plant response rating: 0
Purple nutsedge; [6]
  Nutsedge plant response rating: 0
Purple nutsedge; [7]
  Nutsedge plant response rating: 0
Sugar beet; [2]
  Plant response rating, Sugarbeets: 2
Sugar beet; [3]
  Sugarbeets plant response rating: 5
Sugar beet; [4]
  Plant response rating, Sugarbeets: 8
Sugar beet; [5]
  Sugarbeets plant response rating: 0
Sugar beet; [6]
  Sugarbeets plant response rating: 2
Sugar beet; [7]
  Sugarbeets plant response rating: 5
soybean; [2]
  Plant response rating, Soybean: 3
soybean; [3]
  Soybean plant response rating: 3
soybean; [4]
  Plant response rating, Soybean: 4
soybean; [5]
  Soybean plant response rating: 0
soybean; [6]
  Soybean plant response rating: 0
soybean; [7]
  Soybean plant response rating: 0
rape; [1]
  Rape plant response rating: 3
rape; [2]
  Plant response rating, Rape: 4
rape; [3]
  Rape plant response rating: 9
rape; [4]
  Plant response rating, Rape: 9
rape; [5]
  Rape plant response rating: 3
rape; [6]
  Rape plant response rating: 4
rape; [7]
  Rape plant response rating: 4
crabgrass; [1]
  Crabgrass plant response rating: 1
crabgrass; [2]
  Plant response rating, Crabgrass: 7
crabgrass; [3]
  Crabgrass plant response rating: 6
crabgrass; [4]
  Plant response rating, Crabgrass: 9
crabgrass; [5]
  Crabgrass plant response rating: 8
crabgrass; [6]
  Crabgrass plant response rating: 8
crabgrass; [7]
  Crabgrass plant response rating: 9
bedstraw; [1]
  Bedstraw plant response rating: 5
bedstraw; [2]
  Plant response rating, Bedstraw: 5
bedstraw; [3]
  Bedstraw plant response rating: 9
bedstraw; [5]
  Bedstraw plant response rating: 9
bedstraw; Preemergence, Rate 250 g/ha
  Bedstraw plant response rating (0 to 10 scale): 9
bedstraw; [7]
  Bedstraw plant response rating: 9
Surinam grass; [1]
  B. signalgrass plant response rating: 3
Surinam grass; [2]
  Plant response rating, B. signalgrass: 3
Surinam grass; [3]
  B. signalgrass plant response rating: 7
Surinam grass; [4]
  Plant response rating, B. signalgrass: 9
Surinam grass; [5]
  B. signalgrass plant response rating: 7
Surinam grass; [6]
  B. signalgrass plant response rating: 7
Surinam grass; [7]
  B. signalgrass plant response rating: 9
pigweed; [2]
  Plant response rating, Redroot pigweed: 2
pigweed; [3]
  Redroot pigweed plant response rating: 2
pigweed; [4]
  Plant response rating, Redroot pigweed: 7
pigweed; [5]
  Redroot pigweed plant response rating: 7
pigweed; [6]
  Redroot pigweed plant response rating: 8
pigweed; [7]
  Redroot pigweed plant response rating: 9
wheat; [2]
  Plant response rating, Wheat: 2
wheat; [3]
  Wheat plant response rating: 3
wheat; [4]
  Plant response rating, Wheat: 6
wheat; [5]
  Wheat plant response rating: 0
wheat; [6]
  Wheat plant response rating: 0
wheat; [7]
  Wheat plant response rating: 3
Wild oat; [2]
  Plant response rating, Wild oats: 0
Wild oat; [3]
  Wild oats plant response rating: 2
Wild oat; [4]
  Plant response rating, Wild oats: 7
Wild oat; [5]
  Wild oats plant response rating: 0
Wild oat; [6]
  Wild oats plant response rating: 2
Wild oat; [7]
  Wild oats plant response rating: 9
morningglory; [1]
  Morningglory plant response rating: 1
morningglory; [2]
  Plant response rating, Morningglory: 4
morningglory; [3]
  Morningglory plant response rating: 5
morningglory; [4]
  Plant response rating, Morningglory: 3
morningglory; [5]
  Morningglory plant response rating: 4
morningglory; [6]
  Morningglory plant response rating: 4
morningglory; [7]
  Morningglory plant response rating: 3
cocklebur; [1]
  Cocklebur plant response rating: 0
cocklebur; [2]
  Plant response rating, Cocklebur: 2
cocklebur; [3]
  Cocklebur plant response rating: 4
cocklebur; [4]
  Plant response rating, Cocklebur: 4
cocklebur; [5]
  Cocklebur plant response rating: 0
cocklebur; [6]
  Cocklebur plant response rating: 0
cocklebur; Preemergence, Rate 250 g/ha
  Cocklebur plant response rating (0 to 10 scale): 0
cocklebur; [7]
  Cocklebur plant response rating: 0
blackgrass; [1]
  Blackgrass plant response rating: 5
blackgrass; Postemergence, Rate 125 g/ha
  Plant response rating, Blackgrass: 7
blackgrass; [3]
  Blackgrass plant response rating: 7
blackgrass; Postemergence, Rate 500 g/ha
  Plant response rating, Blackgrass: 7
blackgrass; [5]
  Blackgrass plant response rating: 9
blackgrass; Preemergence, Rate 250 g/ha
  Blackgrass plant response rating (0 to 10 scale): 8
velvetleaf; [2]
  Plant response rating, Velvetleaf: 3
velvetleaf; [3]
  Velvetleaf plant response rating: 3
velvetleaf; [4]
  Plant response rating, Velvetleaf: 5
velvetleaf; [5]
  Velvetleaf plant response rating: 0
velvetleaf; [6]
  Velvetleaf plant response rating: 0
velvetleaf; [7]
  Velvetleaf plant response rating: 5
corn; [1]
  Corn plant response rating: 0
corn; [2]
  Plant response rating, Corn: 2
corn; [3]
  Corn plant response rating: 3
corn; [4]
  Plant response rating, Corn: 4
corn; [5]
  Corn plant response rating: 0
corn; [6]
  Corn plant response rating: 0
corn; Preemergence, Rate 250 g/ha
  Corn plant response rating (0 to 10 scale): 2
corn; [7]
  Corn plant response rating: 3
